Results reported in patent US20060069132A1, “Azolecarboxamide herbicides” (priority 2004, published 2006).

Tests used:
barnyardgrass [1] = test: Test B pre-/postemergence herbicide test; assay type: in vivo, Echinochloa crus-galli
Outline: (§1)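 Evaluation is visual, comparing treated with control plants on a scale where 0 means no effect and 100 means full control. Treatments were preemergence, or postemergence on seedlings 2–18 cm tall, and held 13–15 days in the greenhouse.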

Surinam grass = test: Test B pre-/postemergence herbicide test; assay type: in vivo, Urochloa decumbens; conditions: for Surinam Grass plant response rating: postemergence
Outline: (§2)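 Visual rating, 0 (no effect) to 100 (complete control), versus untreated controls after 13–15 d in greenhouse. Pre- and postemergence applications (postemergence plants 2–18 cm, 1–4 leaves); flooded paddy arm at 2-leaf stage. Compounds in non-phytotoxic solvent plus surfactant.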

cocklebur = test: Test B pre-/postemergence herbicide test; assay type: in vivo, Xanthium strumarium
Outline: as §1

corn = test: Test B pre-/postemergence herbicide test; assay type: in vivo, Zea mays
Outline: as §2

large crabgrass = test: Test B pre-/postemergence herbicide test; assay type: in vivo, Digitaria sanguinalis
Outline: as §2

giant foxtail = test: Test B pre-/postemergence herbicide test; assay type: in vivo, Setaria faberi
Outline: as §2

lambsquarters = test: Test B pre-/postemergence herbicide test; assay type: in vivo, Chenopodium album; conditions: for Lambsquarters plant response rating: postemergence, visual rating
Outline: as §2

morningglory = test: Test B pre-/postemergence herbicide test; assay type: in vivo, Ipomoea coccinea; conditions: for Morningglory plant response rating: postemergence
Outline: as §1

pigweed = test: Test B pre-/postemergence herbicide test; assay type: in vivo, Amaranthus retroflexus; conditions: for Pigweed plant response rating: postemergence
Outline: as §2

rice [2] = test: Test B pre-/postemergence herbicide test; assay type: in vivo, Oryza sativa; conditions: preemergence
Outline: as §2

velvetleaf = test: Test B pre-/postemergence herbicide test; assay type: in vivo, Abutilon theophrasti; conditions: for Velvetleaf plant response rating: postemergence
Outline: as §2

blackgrass = test: Test B postemergence herbicide test; assay type: in vivo, Alopecurus myosuroides; conditions: scale 0 (no effect) to 100 (complete control); for Blackgrass plant response rating: postemergence, visual rating
Outline: (§3)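 Each value is a visual 0–100 response rating taken against controls 13 to 15 days after treatment in the greenhouse. Plants received formulated chemical postemergence at the 1- to 4-leaf stage or, in flooded paddy, at the 2-leaf stage.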

wheat = test: Test B postemergence herbicide test; assay type: in vivo, Triticum aestivum; set-up: key to Wheat plant response rating: 0 = no effect, 100 = complete control; conditions: scale 0 (no effect) to 100 (complete control); for Wheat plant response rating: postemergence, visual rating
Outline: (§4)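 Greenhouse test; postemergence application to plants at 1–4 leaves (2–18 cm); paddy species at 2 leaves; evaluated visually vs controls at 13–15 days; scale 0–100 (100 = complete control).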

wild oat = test: Test B postemergence herbicide test; assay type: in vivo, Avena fatua; conditions: scale 0 (no effect) to 100 (complete control); for Oat, Wild plant response rating: postemergence, visual rating
Outline: as §4

rice [3] = test: Test B flooded paddy test; assay type: in vivo, Oryza sativa; conditions: 1000 g ai/ha, visual rating, scale 0 to 100 (0 no effect, 100 complete control), 13 to 15 days
Outline: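 Read-out: visual comparison with controls, scored 0 to 100, where 100 means complete control and 0 no effect. Formulated chemicals were applied postemergence to plants 2–18 cm tall (1- to 4-leaf), or to flooded-paddy plants at the 2-leaf stage, then held 13 to 15 days under glass.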

[4] = tested on: small flower umbrella sedge; test: Test B flooded paddy test; assay type: in vivo, Cyperus difformis; conditions: 1000 g ai/ha, visual rating, scale 0 to 100 (0 no effect, 100 complete control), 13 to 15 days
Outline: as §3

ducksalad [5] = test: Test B flooded paddy test; assay type: in vivo, Heteranthera limosa; conditions: 1000 g ai/ha, visual rating, scale 0 to 100 (0 no effect, 100 complete control), 13 to 15 days
Outline: as §3

barnyardgrass [6] = test: Test B flooded paddy test; assay type: in vivo, Echinochloa crus-galli; conditions: 1000 g ai/ha, visual rating, scale 0 to 100 (0 no effect, 100 complete control), 13 to 15 days
Outline: as §3

rice [7] = test: Test C flooded paddy test; assay type: in vivo, Oryza sativa; conditions: for Plant response rating, Rice: 500 g ai/ha, visual rating after 12 to 14 days
Outline: (§5)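 Plants were grown to the 1- to 4-leaf stage (2–18 cm) and then treated postemergence, or grown to the 2-leaf stage for the flooded paddy test. They were held in a greenhouse for 12 to 14 days and then scored by eye against controls, where 0 is no effect and 100 is complete control.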

[8] = tested on: smallflower umbrella sedge; test: Test C flooded paddy test; assay type: in vivo, Cyperus difformis; conditions: for Plant response rating, Sedge, Umbrella: 500 g ai/ha, visual rating after 12 to 14 days
ducksalad [9] = test: Test C flooded paddy test; assay type: in vivo, Heteranthera limosa; conditions: for Plant response rating, Ducksalad: 500 g ai/ha, visual rating after 12 to 14 days
barnyardgrass [10] = test: Test C flooded paddy test; assay type: in vivo, Echinochloa crus-galli; conditions: for Plant response rating, Barnyardgrass: 500 g ai/ha, visual rating after 12 to 14 days
Outline: as §5

[11] = Postemergence, 500 g ai/ha, visual rating after 13 to 15 days, scale 0 (no effect) to 100 (complete control)
[12] = Preemergence, 500 g ai/ha, scale 0 to 100
[13] = postemergence, 125 g ai/ha, visual rating, scale 0 (no effect) to 100 (complete control)
[14] = preemergence, 125 g ai/ha, 0 to 100 scale, 0 is no effect, 100 is complete control
[15] = 125 g ai/ha, visual rating, scale 0 (no effect) to 100 (complete control)
[16] = 125 g ai/ha, scale 0 (no effect) to 100 (complete control)
[17] = Postemergence, 500 g ai/ha, visual rating after 13 to 15 days
[18] = 62 g ai/ha, scale 0 to 100 (0 no effect, 100 complete control)
[19] = 125 g ai/ha, scale of 0 to 100, 0 is no effect, 100 is complete control
[20] = 250 g ai/ha, scale of 0 to 100, 0 is no effect, 100 is complete control
[21] = scale 0 to 100 (0 no effect, 100 complete control)
[22] = 125 g ai/ha, 0 = no effect, 100 = complete control, preemergence
[23] = 500 g ai/ha, visual rating, 0 = no effect, 100 = complete control, preemergence
[24] = postemergence, 500 g ai/ha, visual rating, scale 0 (no effect) to 100 (complete control)
[25] = 500 g ai/ha, visual rating, scale 0 (no effect) to 100 (complete control)
[26] = 125 g ai/ha, scale 0 to 100 (0 no effect, 100 complete control)

## CCOC(=O)c1cc(NC(=O)c2cc(C(C)(C)C)nn2CC)c(F)cc1OC [Compound 76]
Barnyardgrass [1]; [11]
  Plant response rating, Barnyardgrass: 20
Barnyardgrass [1]; [12]
  Barnyardgrass plant response rating: 100
Barnyardgrass [1]; [13]
  Barnyardgrass plant response rating: 10
Barnyardgrass [1]; [14]
  Plant response rating, Barnyardgrass: 80
Surinam grass; [11]
  Plant response rating, Surinam Grass: 20
Surinam grass; [15]
  Surinam Grass plant response rating: 20
Surinam grass; [14]
  Plant response rating, Surinam Grass: 70
cocklebur; [11]
  Plant response rating, Cocklebur: 90
cocklebur; [12]
  Cocklebur plant response rating: 40
cocklebur; [13]
  Cocklebur plant response rating: 40
corn; [11]
  Plant response rating, Corn: 30
corn; [12]
  Corn plant response rating: 50
corn; [13]
  Corn plant response rating: 10
corn; [14]
  Plant response rating, Corn: 30
Large crabgrass; [11]
  Plant response rating, Crabgrass, Large: 20
Large crabgrass; [12]
  Crabgrass, Large plant response rating: 90
Large crabgrass; [13]
  Crabgrass, Large plant response rating: 10
Large crabgrass; [14]
  Plant response rating, Crabgrass, Large: 80
Giant foxtail; [11]
  Plant response rating, Foxtail, Giant: 40
Giant foxtail; [12]
  Foxtail, Giant plant response rating: 100
Giant foxtail; [13]
  Foxtail, Giant plant response rating: 20
Giant foxtail; [14]
  Plant response rating, Foxtail, Giant: 90
lambsquarters; [11]
  Plant response rating, Lambsquarters: 60
lambsquarters; [16]
  Lambsquarters plant response rating: 30
lambsquarters; [14]
  Plant response rating, Lambsquarters: 50
morningglory; [11]
  Plant response rating, Morningglory: 10
morningglory; [15]
  Morningglory plant response rating: 10
morningglory; [14]
  Plant response rating, Morningglory: 10
pigweed; [11]
  Plant response rating, Pigweed: 100
pigweed; [15]
  Pigweed plant response rating: 100
pigweed; [14]
  Plant response rating, Pigweed: 100
Rice [2]; 125 g ai/ha, 0 to 100 scale, 0 is no effect, 100 is complete control
  Plant response rating, Rice: 50
velvetleaf; [11]
  Plant response rating, Velvetleaf: 40
velvetleaf; [15]
  Velvetleaf plant response rating: 40
velvetleaf; [14]
  Plant response rating, Velvetleaf: 30
blackgrass; [17]
  Plant response rating, Blackgrass: 50
blackgrass; 125 g ai/ha
  Blackgrass plant response rating: 10
wheat; [17]
  Plant response rating, Wheat: 30
wheat; 125 g ai/ha
  Wheat plant response rating: 20
Wild oat; [17]
  Plant response rating, Oat, Wild: 40
Wild oat; 125 g ai/ha
  Oat, Wild plant response rating: 30
Rice [3]
  Rice plant response rating: 60
[4]
  Sedge, Umbrella plant response rating: 60
Ducksalad [5]
  Ducksalad plant response rating: 100
Barnyardgrass [6]
  Barnyardgrass plant response rating: 70
Rice [7]; [18]
  Rice plant response rating: 75
Rice [7]; [19]
  Rice plant response rating: 80
Rice [7]; [20]
  Rice plant response rating: 85
Rice [7]; [21]
  Plant response rating, Rice: 90
[8]; [18]
  Sedge, Umbrella plant response rating: 80
[8]; [19]
  Sedge, Umbrella plant response rating: 85
[8]; [20]
  Sedge, Umbrella plant response rating: 85
[8]; [21]
  Plant response rating, Sedge, Umbrella: 90
Ducksalad [9]; [18]
  Ducksalad plant response rating: 45
Ducksalad [9]; [19]
  Ducksalad plant response rating: 50
Ducksalad [9]; [20]
  Ducksalad plant response rating: 75
Ducksalad [9]; [21]
  Plant response rating, Ducksalad: 80
Barnyardgrass [10]; [18]
  Barnyardgrass plant response rating: 50
Barnyardgrass [10]; [19]
  Barnyardgrass plant response rating: 70
Barnyardgrass [10]; [20]
  Barnyardgrass plant response rating: 80
Barnyardgrass [10]; [21]
  Plant response rating, Barnyardgrass: 90

## CCc1nc(C(C)(C)C)sc1C(=O)Nc1cc(C(=O)N(C)C)ccc1F [Compound 225]
Barnyardgrass [1]; [22]
  Barnyardgrass plant response rating (0 to 100 scale): 60
Barnyardgrass [1]; [23]
  Plant response rating, Barnyardgrass: 90
Barnyardgrass [1]; [13]
  Barnyardgrass plant response rating: 10
Barnyardgrass [1]; [24]
  Barnyardgrass plant response rating: 30
Surinam grass; [22]
  Surinam Grass plant response rating (0 to 100 scale): 20
Surinam grass; [23]
  Plant response rating, Surinam Grass: 90
Surinam grass; [15]
  Surinam Grass plant response rating: 10
Surinam grass; [25]
  Surinam Grass plant response rating: 20
cocklebur; [22]
  Cocklebur plant response rating (0 to 100 scale): 0
cocklebur; [23]
  Plant response rating, Cocklebur: 40
cocklebur; [13]
  Cocklebur plant response rating: 20
cocklebur; [24]
  Cocklebur plant response rating: 20
corn; [22]
  Corn plant response rating (0 to 100 scale): 30
corn; [23]
  Plant response rating, Corn: 70
corn; [13]
  Corn plant response rating: 10
corn; [24]
  Corn plant response rating: 20
Large crabgrass; [22]
  Crabgrass, Large plant response rating (0 to 100 scale): 10
Large crabgrass; [23]
  Plant response rating, Crabgrass, Large: 100
Large crabgrass; [13]
  Crabgrass, Large plant response rating: 10
Large crabgrass; [24]
  Crabgrass, Large plant response rating: 20
Giant foxtail; [22]
  Foxtail, Giant plant response rating (0 to 100 scale): 60
Giant foxtail; [23]
  Plant response rating, Foxtail, Giant: 100
Giant foxtail; [13]
  Foxtail, Giant plant response rating: 10
Giant foxtail; [24]
  Foxtail, Giant plant response rating: 20
lambsquarters; [22]
  Lambsquarters plant response rating (0 to 100 scale): 80
lambsquarters; [16]
  Lambsquarters plant response rating: 50
lambsquarters; 500 g ai/ha, scale 0 (no effect) to 100 (complete control)
  Lambsquarters plant response rating: 70
morningglory; [22]
  Morningglory plant response rating (0 to 100 scale): 0
morningglory; [23]
  Plant response rating, Morningglory: 10
morningglory; [15]
  Morningglory plant response rating: 10
morningglory; [25]
  Morningglory plant response rating: 40
pigweed; [22]
  Pigweed plant response rating (0 to 100 scale): 70
pigweed; [23]
  Plant response rating, Pigweed: 100
pigweed; [15]
  Pigweed plant response rating: 40
pigweed; [25]
  Pigweed plant response rating: 70
Rice [2]; 125 g ai/ha, 0 = no effect, 100 = complete control
  Rice plant response rating (0 to 100 scale): 60
Rice [2]; 500 g ai/ha, visual rating, 0 = no effect, 100 = complete control
  Plant response rating, Rice: 90
velvetleaf; [22]
  Velvetleaf plant response rating (0 to 100 scale): 30
velvetleaf; [23]
  Plant response rating, Velvetleaf: 100
velvetleaf; [15]
  Velvetleaf plant response rating: 30
velvetleaf; [25]
  Velvetleaf plant response rating: 40
blackgrass; 125 g ai/ha
  Blackgrass plant response rating: 20
blackgrass; 500 g ai/ha
  Blackgrass plant response rating: 40
wheat; 125 g ai/ha
  Wheat plant response rating: 10
wheat; 500 g ai/ha
  Wheat plant response rating: 30
Wild oat; 125 g ai/ha
  Oat, Wild plant response rating: 0
Wild oat; 500 g ai/ha
  Oat, Wild plant response rating: 30
Rice [3]
  Rice plant response rating: 90
[4]
  Sedge, Umbrella plant response rating: 90
Ducksalad [5]
  Ducksalad plant response rating: 90
Barnyardgrass [6]
  Barnyardgrass plant response rating: 90
Rice [7]; [18]
  Rice plant response rating: 55
Rice [7]; [26]
  Rice plant response rating: 70
Rice [7]; [20]
  Rice plant response rating: 75
Rice [7]; [21]
  Plant response rating, Rice: 80
[8]; [18]
  Sedge, Umbrella plant response rating: 65
[8]; [26]
  Sedge, Umbrella plant response rating: 75
[8]; [20]
  Sedge, Umbrella plant response rating: 75
[8]; [21]
  Plant response rating, Sedge, Umbrella: 80
Ducksalad [9]; [18]
  Ducksalad plant response rating: 10
Ducksalad [9]; [26]
  Ducksalad plant response rating: 75
Ducksalad [9]; [20]
  Ducksalad plant response rating: 85
Ducksalad [9]; [21]
  Plant response rating, Ducksalad: 85
Barnyardgrass [10]; [18]
  Barnyardgrass plant response rating: 35
Barnyardgrass [10]; [26]
  Barnyardgrass plant response rating: 60
Barnyardgrass [10]; [20]
  Barnyardgrass plant response rating: 80
Barnyardgrass [10]; [21]
  Plant response rating, Barnyardgrass: 90
